Results as given in ChEMBL document CHEMBL5236646, “Design, synthesis, and biological evaluation of BRD4 degraders” (Bioorg Med Chem, 2023).
Calls of active or inactive are those of the source. The rule behind the calls is not given here.

Columns and labels:
MM1.S = test: Antiproliferative activity against human MM1.S cells assessed as inhibition of cell growth incubated for 72 hrs MTS assay; format: functional, cell-based
MV4-11 = test: Antiproliferative activity against human […] cells assessed as inhibition of cell growth incubated for 72 hrs MTS assay; format: functional, cell-based; settings: MV4-11, 72 h
[1] = biological target: T1, Protein cereblon/Bromodomain-containing protein 4 (Homo sapiens) (UniProt O60885+Q96SW2); test: Protac activity at CRBN/BRD4 in human MM1.S cells assessed as induction of BRD4 protein degradation by measuring residual activity at 0.1 uM incubated for 3 hrs by Western blot analysis relative to control; format: cell-based
T1 sequence (Q96SW2 whole entry, looked up, other chains not shown): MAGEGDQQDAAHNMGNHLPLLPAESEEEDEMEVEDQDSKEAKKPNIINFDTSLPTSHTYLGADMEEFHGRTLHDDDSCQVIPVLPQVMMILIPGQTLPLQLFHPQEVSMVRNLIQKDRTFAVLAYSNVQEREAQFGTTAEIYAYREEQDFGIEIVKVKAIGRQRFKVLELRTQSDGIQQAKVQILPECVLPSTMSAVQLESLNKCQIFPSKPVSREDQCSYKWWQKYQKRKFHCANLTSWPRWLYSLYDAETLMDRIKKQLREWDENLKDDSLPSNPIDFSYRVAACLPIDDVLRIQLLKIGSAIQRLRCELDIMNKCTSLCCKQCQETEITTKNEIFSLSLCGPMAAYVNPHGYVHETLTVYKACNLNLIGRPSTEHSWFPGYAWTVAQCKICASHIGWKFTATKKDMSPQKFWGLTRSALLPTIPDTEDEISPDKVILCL

[2] = biological target: T1, Protein cereblon/Bromodomain-containing protein 4 (Homo sapiens); test: Protac activity at CRBN/BRD4 in human MM1.S cells assessed as induction of BRD4 protein degradation by measuring residual activity at 0.3 uM incubated for 3 hrs by Western blot analysis relative to control; format: cell-based
[3] = biological target: T1, Protein cereblon/Bromodomain-containing protein 4 (Homo sapiens); test: Protac activity at CRBN/BRD4 in human MM1.S cells assessed as induction of BRD4 protein degradation by measuring residual activity at 1 uM incubated for 3 hrs by Western blot analysis relative to control; format: cell-based
[4] = biological target: T1, Protein cereblon/Bromodomain-containing protein 4 (Homo sapiens); test: Protac activity at CRBN/BRD4 in human MV4-11 cells assessed as induction of BRD4 protein degradation by measuring residual activity at 0.02 uM incubated for 3 hrs by Western blot analysis relative to control; format: cell-based
[5] = biological target: T1, Protein cereblon/Bromodomain-containing protein 4 (Homo sapiens); test: Protac activity at CRBN/BRD4 in human MV4-11 cells assessed as induction of BRD4 protein degradation by measuring residual activity at 0.06 uM incubated for 3 hrs by Western blot analysis relative to control; format: cell-based
[6] = biological target: T1, Protein cereblon/Bromodomain-containing protein 4 (Homo sapiens); test: Protac activity at CRBN/BRD4 in human MV4-11 cells assessed as induction of BRD4 protein degradation by measuring residual activity at 0.18 uM incubated for 3 hrs by Western blot analysis relative to control; format: cell-based
[7] = biological target: T1, Protein cereblon/Bromodomain-containing protein 4 (Homo sapiens); test: Protac activity at CRBN/BRD4 in human MM1.S cells assessed as induction of BRD4 protein degradation by measuring residual activity at 0.2 uM incubated for 3 hrs by Western blot analysis relative to control; format: cell-based
[8] = biological target: T1, Protein cereblon/Bromodomain-containing protein 4 (Homo sapiens); test: Protac activity at CRBN/BRD4 in human MM1.S cells assessed as induction of BRD4 protein degradation by measuring residual activity at 0.6 uM incubated for 3 hrs by Western blot analysis relative to control; format: cell-based
[9] = biological target: T1, Protein cereblon/Bromodomain-containing protein 4 (Homo sapiens); test: Protac activity at CRBN/BRD4 in human MM1.S cells assessed as induction of BRD4 protein degradation by measuring residual activity at 1.8 uM incubated for 3 hrs by Western blot analysis relative to control; format: cell-based
[10] = biological target: T1, Protein cereblon/Bromodomain-containing protein 4 (Homo sapiens); test: Protac activity at CRBN/BRD4 in human MV4-11 cells assessed as induction of BRD4 protein degradation by measuring residual activity at 0.04 uM incubated for 3 hrs by Western blot analysis relative to control; format: cell-based
[11] = biological target: T1, Protein cereblon/Bromodomain-containing protein 4 (Homo sapiens); test: Protac activity at CRBN/BRD4 in human MV4-11 cells assessed as induction of BRD4 protein degradation by measuring residual activity at 0.12 uM incubated for 3 hrs by Western blot analysis relative to control; format: cell-based
[12] = biological target: T1, Protein cereblon/Bromodomain-containing protein 4 (Homo sapiens); test: Protac activity at CRBN/BRD4 in human MV4-11 cells assessed as induction of BRD4 protein degradation by measuring residual activity at 0.36 uM incubated for 3 hrs by Western blot analysis relative to control; format: cell-based
[13] = biological target: T1, Protein cereblon/Bromodomain-containing protein 4 (Homo sapiens); test: Protac activity at CRBN/BRD4 in human MM1.S cells assessed as downregulation of MYC protein expression at […] incubated for 3 hrs by Western blot analysis; format: cell-based
[14] = biological target: T1, Protein cereblon/Bromodomain-containing protein 4 (Homo sapiens); test: Protac activity at CRBN/BRD4 in human MM1.S cells assessed as induction of BRD4 protein degradation by measuring residual activity at 0.07 uM incubated for 3 hrs by Western blot analysis relative to control; format: cell-based
[15] = biological target: T1, Protein cereblon/Bromodomain-containing protein 4 (Homo sapiens); test: Protac activity at CRBN/BRD4 in human MV4-11 cells assessed as induction of BRD4 protein degradation by measuring residual activity at 0.01 uM incubated for 3 hrs by Western blot analysis relative to control; format: cell-based
[16] = biological target: T1, Protein cereblon/Bromodomain-containing protein 4 (Homo sapiens); test: Protac activity at CRBN/BRD4 in human MV4-11 cells assessed as induction of BRD4 protein degradation by measuring residual activity at 0.03 uM incubated for 3 hrs by Western blot analysis relative to control; format: cell-based
[17] = biological target: T1, Protein cereblon/Bromodomain-containing protein 4 (Homo sapiens); test: Protac activity at CRBN/BRD4 in human MV4-11 cells assessed as induction of BRD4 protein degradation by measuring residual activity at 0.09 uM incubated for 3 hrs by Western blot analysis relative to control; format: cell-based
[18] = biological target: T1, Protein cereblon/Bromodomain-containing protein 4 (Homo sapiens); test: Protac activity at CRBN/BRD4 in human MM1.S cells assessed as induction of BRD4 protein degradation by measuring residual activity at 0.06 uM incubated for 3 hrs by Western blot analysis relative to control; format: cell-based
[19] = biological target: T1, Protein cereblon/Bromodomain-containing protein 4 (Homo sapiens); test: Protac activity at CRBN/BRD4 in human MM1.S cells assessed as induction of BRD4 protein degradation by measuring residual activity at 0.18 uM incubated for 3 hrs by Western blot analysis relative to control; format: cell-based
[20] = biological target: T1, Protein cereblon/Bromodomain-containing protein 4 (Homo sapiens); test: Protac activity at CRBN/BRD4 in human MM1.S cells assessed as induction of BRD4 protein degradation by measuring residual activity at 0.02 uM incubated for 3 hrs by Western blot analysis relative to control; format: cell-based
[21] = biological target: T1, Protein cereblon/Bromodomain-containing protein 4 (Homo sapiens); test: Protac activity at CRBN/BRD4 in human MV4-11 cells assessed as induction of BRD4 protein degradation by measuring residual activity at 0.005 uM incubated for 3 hrs by Western blot analysis relative to control; format: cell-based
[22] = biological target: T1, Protein cereblon/Bromodomain-containing protein 4 (Homo sapiens); test: Protac activity at CRBN/BRD4 in human MV4-11 cells assessed as induction of BRD4 protein degradation by measuring residual activity at 0.015 uM incubated for 3 hrs by Western blot analysis relative to control; format: cell-based
[23] = biological target: T1, Protein cereblon/Bromodomain-containing protein 4 (Homo sapiens); test: Protac activity at CRBN/BRD4 in human MV4-11 cells assessed as induction of BRD4 protein degradation by measuring residual activity at 0.045 uM incubated for 3 hrs by Western blot analysis relative to control; format: cell-based
[24] = biological target: T1, Protein cereblon/Bromodomain-containing protein 4 (Homo sapiens); test: Protac activity at CRBN/BRD4 in human MM1.S cells assessed as induction of BRD4 protein degradation by measuring residual activity at 0.03 uM incubated for 3 hrs by Western blot analysis relative to control; format: cell-based
[25] = Inhibition of TGF-beta induced activation of human MRC5 cells assessed as residual BRD4 protein level at 0.1 uM by Western blot analysis (reference value: 96%); format: functional
[26] = Inhibition of TGF-beta induced activation of human MRC5 cells assessed as residual BRD4 protein level at 0.5 uM by Western blot analysis (reference value: 96%); format: functional

| SMILES | IC50 (MM1.S) | IC50 (MV4-11) | Activity [1] | Activity [2] | Activity [7] | Activity [8] | Activity [15] | Activity [16] | Activity [17] | other results |
| --- | --- | --- | --- | --- | --- | --- | --- | --- | --- | --- |
| Cc1sc2c(c1C)C(c1ccc(Cl)cc1)=N[C@@H](CC(=O)NCCNC(=O)c1ccc(COc3cccc4c3C(=O)N(C3CCC(=O)NC3=O)C4=O)cc1)c1nnc(C)n1-2 (stereo partly drawn) | 544 nM | 48 nM | 117% | 136% |  |  |  |  |  | Activity [3]: 123%; Activity [4]: 126%; Activity [5]: 102%; Activity [6]: 82% |
| Cc1sc2c(c1C)C(c1ccc(Cl)cc1)=N[C@@H](CC(=O)NCCCCNC(=O)c1ccc(CNc3cccc4c3C(=O)N(C3CCC(=O)NC3=O)C4=O)cc1)c1nnc(C)n1-2 (stereo partly drawn) | 602 nM | 128 nM |  |  | 144% | 141% |  |  |  | Activity [9]: 139%; Activity [10]: 121%; Activity [11]: 99%; Activity [12]: 131% |
| Cc1sc2c(c1C)C(c1ccc(Cl)cc1)=N[C@@H](CC(=O)NCCCNC(=O)c1ccc(COc3cccc4c3C(=O)N(C3CCC(=O)NC3=O)C4=O)cc1)c1nnc(C)n1-2 (stereo partly drawn) | 302 nM | 28 nM |  |  | 108% | 84% | 89% | 66% | 78% | Activity [13]: inactive; Activity [14]: 126% |
| COC(=O)c1ccc2c(c1)NC(=O)/C2=C(\Nc1ccc(N(C)C(=O)CN2CCN(C)CC2)cc1)c1ccccc1 [NINTEDANIB] |  |  |  |  |  |  |  |  |  | Activity [25]: 88%; Activity [26]: 71% |

More lines, main results first:

| IC50 (MM1.S) | IC50 (MV4-11) | Activity [1] | Activity [2] | Activity [7] | Activity [8] | Activity [15] | Activity [16] | Activity [17] | SMILES | other results |
| --- | --- | --- | --- | --- | --- | --- | --- | --- | --- | --- |
| 139 nM | 10 nM |  |  |  |  |  |  |  | Cc1sc2c(c1C)C(c1ccc(Cl)cc1)=N[C@@H](CC(=O)NCCCCNC(=O)c1ccc(COc3cccc4c3CN(C3CCC(=O)NC3=O)C4=O)cc1)c1nnc(C)n1-2 (stereo partly drawn) | Activity [18]: 98%; Activity [19]: 59%; Activity [20]: 93%; Activity [21]: 126%; Activity [22]: 102%; Activity [23]: 95% |
| 182 nM | 18 nM | 92% | 89% |  |  | 141% | 141% | 120% | Cc1sc2c(c1C)C(c1ccc(Cl)cc1)=N[C@@H](CC(=O)NCCNC(=O)c1ccc(COc3cccc4c3CN(C3CCC(=O)NC3=O)C4=O)cc1)c1nnc(C)n1-2 (stereo partly drawn) | Activity [24]: 99% |
